Like-named read-outs stand apart in the source and are kept apart here.
Assays:
[1] = type: physicochemical
Method: The ratio of COMPOUND A to Lutetium was 3:1 for all samples. The reaction mixtures were heated, cooled, treated with Na2EDTA.2H2O and analyzed by HPLC as described in Example 13, and then stored at room temperature for 24 hours, at which time all samples were analyzed again.

[2] = type: physicochemical; remark: listed apart in the source
Method: The injection volume was 20 μL.
Solutions of 1-pyrrolidine dithiocarbamic acid ammonium salt (PDTC) were prepared at concentrations of 20-, 10-, 5- and 1 mg/mL by dissolving it in a sodium acetate (NaOAc) buffer solution (0.2 M, pH 4.8). To lead-shielded 300-μL sample vials were added, individually, 50-μL aliquots of the PDTC-NaOAc butter solutions, including an aliquot of the NaOAc buffer only, to serve as a control sample. To each buffer aliquot was added 9.95 mCi ^177LuCl3 (avg) and 17.2 μg COMPOUND A (dissolved in water). The molar ratio of COMPOUND A:Lu (total Lu) for each sample was 3:1. During the reaction, in each sample, the concentration of COMPOUND A was 287-μg/mL and the activity concentration was 167-mCi/mL. The samples wore heated to 100° C. for 5 minutes, then cooled for 5 minutes in an ambient-temperature water bath. To each sample, 10 μL of 2% EDTA in water was added, and then each was analyzed by HPLC (Method 3) over 48 hours. At t=0, the radioactivity concentration was 143 mCi/mL.

[3] = type: physicochemical; remark: listed apart in the source
[4] = Effect of contaminant zinc on ^177Lu-B labeling with PDTC in reaction buffer (Example 20); type: physicochemical; conditions: Sample 2: COMPOUND B with ^177Lu in the presence of zinc and PDTC (COMPOUND B:^177Lu:Zinc 3:1:3)
Method: The injection volume was 10 μL.
At times, ^177LuCl3 isotope solutions are contaminated with non-radioactive metals that can interfere with radiolabeling. These metals (which may include, for example Zn, Cu, Ca and Fe among others), can compete with ^177Lu for the chelator, thus lowering reaction yields by consuming ligand so it is unavailable for chelation to ^177Lu.
A 10-mg/mL solution of 1pyrrolidine dithiocarbamic acid ammonium salt was prepared by dissolving it in sodium acetate buffer (0.2 M, pH 4.8). To a lead-shielded, 300-μL sample vial was added 86.5 μL of the NaOAc buffer solution, 13.7 mCi ^177LuCl3, 0.6525 μg zinc (6.52 μL of a 100-μg/mL zinc plasma standard solution) and 15 μg COMPOUND B (dissolved in water). This was labeled as ‘Sample 1’. To another lead-shielded, 300-μL sample vial was added 86.5 μL of the […] 1-pyrrolidine dithiocarbamic acid ammonium salt/NaOAc buffer solution, 13.8 mCi ^177LuCl3, 0.6525 μg zinc and 15 μg COMPOUND B. This was labeled as ‘Sample 2’. The concentration of COMPOUND B in each sample was 150 μg/mL and the molar ratio of COMPOUND B:^177Lu:Zinc for each sample was 3:1:3. The samples were heated to 100° C. for 5 min, and then cooled for 5 min in an ambient-temperature water bath. To each sample, 10 μL of 2% Na2EDTA.2H2O in water was added, and then each was analyzed by HPLC, using HPLC Method 5.

[5] = ^177Lu-A prepared with PDTC 1 mg/mL (0.05 mg)
[6] = ^177Lu-A prepared with PDTC 5 mg/mL (0.25 mg)
[7] = ^177Lu-A prepared with PDTC 10 mg/mL (0.5 mg)
[8] = ^177Lu-A prepared with PDTC 20 mg/mL (1 mg)

N.S=C(S)N1CCCC1 [PDTC, 1-pyrrolidine dithiocarbamic acid ammonium salt]
100%: RCP % t = 0 h ([1]; ^177Lu-A (4.65-5.64 mCi) prepared in presence of stabilizer 5 mg/mL, 0 h) | RCP (%) 0-h ([2]; ^177Lu-A 143 mCi/mL at t=0, prepared with PDTC 1 mg/mL (0.05 mg)) | RCP (%) 0-h ([2]; ^177Lu-A 143 mCi/mL at t=0, prepared with PDTC 5 mg/mL (0.25 mg)) | RCP (%) 0-h ([2]; ^177Lu-A 143 mCi/mL at t=0, prepared with PDTC 10 mg/mL (0.5 mg)) | RCP (%) 0-h ([2]; ^177Lu-A 143 mCi/mL at t=0, prepared with PDTC 20 mg/mL (1 mg)) | RCP (%) 3-h [2, 5] | RCP (%) 3-h [2, 6] | RCP (%) 6-h [2, 6] | RCP (%) 12-h [2, 6] | RCP (%) 3-h [2, 7] | RCP (%) 6-h [2, 7] | RCP (%) 12-h [2, 7] | RCP (%) 24-h [2, 7] | RCP (%) 48-h [2, 7] | RCP (%) 3-h [2, 8] | RCP (%) 6-h [2, 8] | RCP (%) 12-h [2, 8] | RCP (%) 24-h [2, 8] | RCP (%) 48-h [2, 8] | RCP for up to 48 hours ([2]; ^177Lu-A, PDTC at 20 mg/mL) | RCP [4]
1%: RCP Drop over 24 hr ([3]; ^177Lu-B formulated with 5 mg stabilizing compound, 0 to 24 h)
17.2%: RCP (%) 6-h [2, 5]
94.7%: (% RCP) 6-h ([3]; ^177Lu-B (44-53 mCi) formulated with 5 mg stabilizing compound, 6 h)
99.9%: RCP % t = 24 h ([1]; ^177Lu-A prepared in presence of stabilizer 5 mg/mL, room temperature, 24 h)
0%: RCP (%) 12-h [2, 5] | RCP (%) 24-h [2, 5] | RCP (%) 24-h [2, 6]
95.0%: (% RCP) 0-h ([3]; ^177Lu-B (44-53 mCi) formulated with 5 mg stabilizing compound, diluted to ~2 mL, ~6° C. above room temperature, 0 h)
94.0%: (% RCP) 24-h ([3]; ^177Lu-B (44-53 mCi) formulated with 5 mg stabilizing compound, 24 h)

— patent US20120065365A1, “Stable Radiopharmaceutical Compositions and Methods for Their Preparation” (BRACCO IMAGING S.P.A., priority 2003, published 2012)
